From patent publication US5061708A, “Therapeutic guanine esters” (priority 1987, dated 1991)
Counter-ions that a name gives are not always drawn.

Assays:
[1] = in words; cited from earlier work
[2] = system: Herpes Simplex Virus (HSV 1); test: HSV 1 plaque reduction assay in monolayers of Vero cells; assay type: cell-based; conditions: HSV 1, Vero cells, 50% inhibitory concentration
Procedure: Herpes Simplex Virus (HSV 1) was assayed in monolayers of Vero cells in multiwell trays. Activity of compounds was determined in the plaque reduction assay, in which a cell monolayer was infected with a suspension of HSV 1, and then overlaid with nutrient agarose in the form of a gel to ensure that there was no spread of virus throughout the culture. A range of concentrations of compound of known molarity was incorporated in the nutrient agarose overlay. Plaque numbers at each concentration were expressed as percentages of the control and a dose-response curve was drawn. From this curve the 50% inhibitory concentration (IC50) was estimated.

herpes viruses = conditions: particularly against herpes viruses, in words; cited from earlier work

Nc1nc2c(ncn2COCCO)c(=O)[nH]1 [Acyclovir, 9-(2-Hydroxyethoxymethyl)guanine]
absorption from the gastrointestinal tract after oral administration [1]: only poorly absorbed
IC50 [2]: 80 to 100 nM
antiviral activity (herpes viruses): potent antiviral activity

CC[C@H](C)[C@H](N)C(=O)OCCOCn1cnc2c(=O)[nH]c(N)nc21 [Example 1, 2-(2-Amino-1,6-dihydro-6-oxo-9H(purin-9-yl)methoxy)ethyl L-isoleucinate hydrochloride]
IC50 [2]: 3800 nM
